The record followed here is paper PMC10048662, “Whole-Cell Biocatalytic Production of Acetoin with an aldC-Overexpressing Lactococcus lactis Using Soybean as Substrate” (Foods, 2023).

SMILES strings stand for the structures.

For this assay, the target named is T1, ALDC (α-acetolactate decarboxylase, aldC) (Lactiplantibacillus plantarum, UniProt F9UPY7).
T1 construct: gene aldB; expressed in Lactococcus lactis NZ9000 from pNZ8048, crude lysate supernatant; ALDC described as dimer
Description: acetoin formation, creatine/α-naphthol colour reaction at […] nm. The class given is biochemical. Conditions: crude lysate supernatant of nisin-induced cells; 30 °C, 20 min; uninduced cells as comparison.

T1 sequence (F9UPY7 entry or part of it): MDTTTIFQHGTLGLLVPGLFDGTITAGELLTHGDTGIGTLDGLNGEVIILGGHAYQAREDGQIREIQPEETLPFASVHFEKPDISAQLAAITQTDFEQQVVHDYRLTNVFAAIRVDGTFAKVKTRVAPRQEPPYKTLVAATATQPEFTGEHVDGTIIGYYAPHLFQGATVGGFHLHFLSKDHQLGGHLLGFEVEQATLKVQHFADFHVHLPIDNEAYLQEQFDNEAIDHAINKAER

`CC(=O)C(C)(O)C(=O)O` (racemic) [α-acetolactate]: the “acetoin formation, creatine/α-naphthol colour reaction at 522 nm” value is reported as “the expressed ALDC can efficiently convert α-acetolactate to acetoin”.
